Results taken from publication PMC6973020, “Quinoline‐Conjugated Ruthenacarboranes: Toward Hybrid Drugs with a Dual Mode of Action” (Chemmedchem, 2019).

Experiments:
[1] = test system: A375 human skin melanoma; assay: MTT cell viability assay, A375; type: cell-based; settings: 72 h
Excerpt: (§1) Thus, care must be taken when comparing their biological activities with those of our previous studies, even with the same cell line, because the covalent vs. non‐covalent combination of drugs might imply different mechanisms of action in the cell.44 Here, we studied the in vitro activity of ruthenacarborane 3, i. e. free acid, and its 8‐hydroxyquinolyl (4) and 4‐{(7‐chloroquinolin‐4‐yl)oxy}butanol‐1‐yl (5) esters, against a panel of cancer cell lines (B16 mouse melanoma, A375 human skin melanoma, MCF‐7 human breast adenocarcinoma, LN229 human glioblastoma, U251 human glioma). Human fibroblast cell line MRC‐5, murine microglial cell line BV‐2 as well as peritoneal exudate cells (Mph), were chosen as models for non‐malignant cells. […] On the other side, we wanted to assess the reproducibility of the viability data, under either controlled (with BSA) or uncontrolled (without BSA) conditions, in two sets of independent assays. […] Cells were exposed to 3–5 for 72 h, after which cell viability was determined via 3‐(4,5‐dimethylthiazol‐2‐yl)‐2,5‐diphenyltetrazolium bromide (MTT) and crystal violet (CV) assays, in parallel (Table 2). Cisplatin was also tested as reference.
(§2) Preparation of drug solutions. […] Stock solution of cisplatin was prepared in DMF (10 mM) immediately before use. A stock solution of BSA in PBS was prepared at 1.28 mM concentration, and stored at 4 °C in the dark. […] Alternatively, 3 or 4 (DMSO stock solution) were added to the BSA solution in PBS, always with a 10 : 1 molar ratio of BSA to ruthenacarborane. The BSA−ruthenacarborane solutions were incubated 0.5–1 h at room temperature, then diluted with cell culture medium to the desired final concentrations. Final concentrations of 3 and 4 were the same as for the BSA‐free formulation. Final DMSO was 0.02–0.5 vol %.
(§3) Colorimetric assays for cellular viability. […] For counting the number of attached (viable) cells, cells were fixed with 4 % (w/v) paraformaldehyde for 10 min at room temperature, and subsequently stained for 15 min with […] crystal violet (CV) solution. Cells were then washed with tap water, dried in air, and the CV dye was dissolved in 33 % (w/v) acetic acid solution. For the detection of mitochondrial respiration, cells were cultivated in MTT staining solution (0.5 mg mL^−1) for approximately 1 h. The dye was then discarded, and the formed formazan (purple) was dissolved in DMSO. The absorbance was measured with an automated microplate reader at λmax 540 nm, with the reference λmax 670 nm. Untreated cells or cells treated only with BSA (control) were also measured, as reference for BSA‐free and BSA‐containing drug formulations, respectively. […] Cell viability is expressed as percentage (%) relative to control (untreated cultures).58 Experiments were run in three independent replicates. […]

[2] = test system: B16 mouse melanoma; assay: Crystal violet (CV) cell viability assay, B16; type: cell-based; settings: 72 h
Excerpt: as §1, §2, §3

[3] = test system: LN229 human glioblastoma; assay: MTT cell viability assay, LN229; type: cell-based; settings: 72 h
Excerpt: as §1, §2, §3

[4] = test system: murine microglial cell line BV‐2; assay: MTT cell viability assay, BV‐2; type: cell-based, mouse; settings: 72 h
Excerpt: as §1
(§4) Preparation of drug solutions. […] Stock solution of cisplatin was prepared in DMF (10 mM) immediately before use. A stock solution of BSA in PBS was prepared at 1.28 mM concentration, and stored at 4 °C in the dark. […] Alternatively, 3 or 4 (DMSO stock solution) were added to the BSA solution in PBS, always with a 10 : 1 molar ratio of BSA to ruthenacarborane. […]
(§5) Colorimetric assays for cellular viability. […] The absorbance was measured with an automated microplate reader at λmax 540 nm, with the reference λmax 670 nm. Untreated cells or cells treated only with BSA (control) were also measured, as reference for BSA‐free and BSA‐containing drug formulations, respectively. […] Cell viability is expressed as percentage (%) relative to control (untreated cultures).58 Experiments were run in three independent replicates. […]

[5] = test system: U251 and LN229 cell lines; assay: Cell viability assays (MTT, CV), summary for glioma and glioblastoma lines; type: cell-based, human; settings: 72 h
Excerpt: as §1, §4, §5

[6] = Nanoparticle Tracking Analysis (NTA) in PBS/DMSO, with and without BSA; type: physicochemical; settings: PBS, without BSA, 20 μM, 25 °C
Description: Nanoparticle Tracking Analysis (NTA). 3 and 4 were analyzed via NTA to study the modulation of self‐assembly behavior in PBS/DMSO mixture (pH 7.4), with and without BSA, in an analogous way as described previously.9 Samples of 3 and 4 in PBS/DMSO were prepared as described above for UV‐vis measurements. The solutions were measured 30 min after preparation. Samples of BSA−3 and BSA−4 were prepared with two different BSA:ruthenacarborane ratios, namely 10 : 1 and 1 : 1. Stock solutions of BSA in PBS ([BSA]PBS=1.128 mM) were diluted to final concentrations of 200 or 20 μM with PBS (Vfin=5 mL), then an aliquot of the stock solution of 3 or 4 was added, so that the final concentration of metallacarborane was 20 μM. Content of DMSO was adjusted to 1 vol % (considering the amount of DMSO from the stock solutions) before addition of the ruthenacarborane, in all samples. The solutions of BSA−ruthenacarborane were measured 3.5–6 h after preparation. BSA alone in PBS/DMSO was also measured, as blank, using the same capture and processing parameters as for the respective BSA−metallacarborane samples, for direct comparison. All NTA measurements were performed at 25±0.1 °C. Each sample was measured in five independent captures. The time of each capture was set to 60 s.

[7] = test system: LN229 cells; assay: Wound healing assay, LN229; type: cell-based, human; settings: LN229, IC50 dose, 72 h

Substance	IC50 [1] [µM]	IC50 [2] [µM]	IC50 [3] [µM]	IC50 [4] [µM]	IC50 ([5]; range over both cell lines, depending on assay and formulation type, read-out: IC50 concentrations against U251 and LN229) [µM]	concentration of self‐assemblies [6]	cell motility (wound healing assay, in words) [7]	activity against LN229 and U251 (in words) ([5]; concentration range tested up to 100 μM)
closo ‐[3‐(η^6‐p‐Cymene)‐1‐(quinolin‐8‐yl‐acetate)‐3,1,2‐RuC2B9H10] [Compound 4]	11.9 ± 1.2	24.5 ± 2.1	42.4 ± 3.9	8.7 ± 0.1	33 to 45	10^6–10^7 particles mL^−1	inhibited motility	–
closo‐ [Compound 3, closo‐ [3‐(η^6‐p‐Cymene)‐1‐(CH2COOH)‐3,1,2‐RuC2B9H10]]	9.7 ± 1.1	21.1 ± 2	80.1 ± 4	64.7 ± 0.7	–	10^6–10^7 particles mL^−1	inhibited motility	inactive
